Assay results: the NIST ThermoML archive (doi:10.1016/j.tca.2014.09.011)
Where “and” joins values, the source holds several entries; their conditions need not be identical. Equal entries are not always repeated.

Details: Liquid, Rate of evaporation

CCCCO [butan-1-ol]
Details | vapor or sublimation pressure
301.02 K | 1.09 kPa
305.59 K | 1.46 kPa
310.16 K | 1.92 kPa
310.26 K | 1.96 kPa
310.29 K | 1.9 kPa and 1.91 kPa
314.75 K | 2.67 kPa
314.76 K | 2.6 kPa and 2.5 kPa
314.81 K | 2.61 kPa
321.34 K | 4.15 kPa and 4.19 kPa
322.07 K | 4.33 kPa
322.58 K | 4.48 kPa
322.69 K | 4.52 kPa
323.09 K | 4.54 kPa
323.14 K | 4.54 kPa
323.5 K | 4.62 kPa
323.67 K | 4.69 kPa
323.78 K | 4.75 kPa
323.9 K | 4.74 kPa
324.18 K | 4.79 kPa
324.28 K | 4.85 kPa
324.57 K | 4.91 kPa
324.59 K | 4.87 kPa
324.8 K | 4.95 kPa
324.91 K | 4.98 kPa
333.51 K | 8.09 kPa
334.32 K | 8.38 kPa
341.78 K | 12.79 kPa
343.2 K | 13.52 kPa
343.36 K | 13.71 kPa
343.39 K | 14.44 kPa
352.7 K | 21.03 kPa
360.58 K | 32.09 kPa

CCO [ethanol]
Details | vapor or sublimation pressure [kPa]
301.1 K | 9.07
305.47 K | 10.94
305.54 K | 11.69
305.63 K | 11.08
305.68 K | 11.85

CCCCCCCCO [octan-1-ol]
Details | vapor or sublimation pressure [kPa]
319.82 K | 0.06
324.46 K | 0.09
333.93 K | 0.21
343.23 K | 0.38
343.39 K | 0.4
348.15 K | 0.54
362.32 K | 1.36
390.95 K | 6.14

Cc1ccccc1 [toluene]
Details | vapor or sublimation pressure [kPa]
300.89 K | 4.47
305.64 K | 5.17
305.68 K | 5.23
324.21 K | 13.4
